Laboratory results: patent publication EP4685482A1, “METHOD FOR SELECTING DRUGS FOR THE TREATMENT OF MENTAL HEALTH PATHOLOGIES” (Neomente Corp, priority 2023, dated 2024)

Tested on: Patients diagnosed with unipolar depression
Assay: Clinical follow-up of patients with the SIGH-D-17 scale (treatment as usual vs guided by the Clinical Decision Support System), case examples
Format: in vivo
Conditions: for response to treatment regimen (patient history): Example 1: regimen of escitalopram, sertraline, risperidone, clonazepam and lamotrigine
Experimental: Patients diagnosed with unipolar depression were recruited and divided into two groups. The first group Treatment as Usual (TAU) received treatment according to psychiatry clinical guidelines. The second group received Clinical Decision Support System Guided (CCDSg) additional support from the method for selecting neuropsychiatric drugs. Follow-up was conducted using the SIGH-D-17 scale in both groups at the beginning of treatment and 8 and 12 weeks. […]
Based on the algorithm results, it was decided to discontinue the previous pharmacological regimen and initiate a new one consisting of desvenlafaxine and aripiprazole. A significant response was observed within 8 weeks of treatment initiation (69% reduction in SIGH-D-17 scale).
While awaiting the results of the application of this method, pharmacological treatment with sertraline was initiated. […] These findings are consistent with the genetic variations found (alteration of the CYP2C19 enzyme). Subsequently, and with the results of the application of this method, pharmacological treatment with vortioxetine was implemented, achieving remission at 12 weeks.
(53% reduction in SIGH-D-17 scale).

[1] = Example 1: person, severe unipolar depression, new regimen consisting of desvenlafaxine and aripiprazole, within 8 weeks of treatment initiation
[2] = Example 3: person, treatment-resistant unipolar depression
[3] = Example 4: person, depressive episode

Structure (SMILES)	response (pharmacological history) [2]	response to treatment regimen (patient history)	further results
O=C1CCc2ccc(OCCCCN3CCN(c4cccc(Cl)c4Cl)CC3)cc2N1 [Aripiprazole]			reduction in SIGH-D-17 scale [1]: 69%
O=c1ccc2ccc(OCCCCN3CCN(c4cccc5sccc45)CC3)cc2[nH]1 [Brexpiprazole]			reduction in SIGH-D-17 scale (Example 3: person, treatment-resistant unipolar depression, quetiapine gradually replaced by brexpiprazole, at 8 weeks of treatment): 53%
CN(C)C(=O)N[C@H]1CC[C@H](CCN2CCN(c3cccc(Cl)c3Cl)CC2)CC1 [Cariprazine]	no response		
CN(C)CCCN1c2ccccc2CCc2ccc(Cl)cc21 [Clomipramine]	no response		
CN(C)CC(c1ccc(O)cc1)C1(O)CCCCC1 (stereo not shown) [Desvenlafaxine]	no response		reduction in SIGH-D-17 scale [1]: 69%
CN(C)CCC[C@@]1(c2ccc(F)cc2)OCc2cc(C#N)ccc21 [Escitalopram]	no response	subtherapeutic response	
Cc1nc2n(c(=O)c1CCN1CCC(c3noc4cc(F)ccc34)CC1)CCCC2 [Risperidone]		subtherapeutic response	
CN[C@H]1CC[C@@H](c2ccc(Cl)c(Cl)c2)c2ccccc21 [Sertraline]		subtherapeutic response	side effects (Example 2: CYP2C19 intermediate metabolizer, treatment had to be discontinued): side effects at low doses
COc1ccc(C(CN(C)C)C2(O)CCCCC2)cc1 (stereo not shown) [Venlafaxine]			response (pharmacological history) [3]: ineffective
N#Cc1ccc2[nH]cc(CCCCN3CCN(c4ccc5oc(C(N)=O)cc5c4)CC3)c2c1 [Vilazodone]	no response		
Cc1ccc(Sc2ccccc2N2CCNCC2)c(C)c1 [Vortioxetine]	no response		reduction in SIGH-D-17 scale (Example 2: person, mild unipolar depression, vortioxetine, remission at 12 weeks): 67%
O=C1CN=C(c2ccccc2Cl)c2cc([N+](=O)[O-])ccc2N1 [clonazepam]		subtherapeutic response	response (pharmacological history) [3]: poor response
Nc1nnc(-c2cccc(Cl)c2Cl)c(N)n1 [lamotrigine]		subtherapeutic response	response (pharmacological history) [3]: ineffective
